The subject of one test is MCF7. The experiment in a line: cells. As to conditions: Homo sapiens, MCF7, 48 h.
In the next test the test system is SGC-7901. The experiment in a line: cells. Particulars: Homo sapiens, SGC-7901, 48 h.
In another test the test system is HepG2. Nature of the test: cells. Particulars: Homo sapiens, HepG2, 48 h.
Test [1] can be described thus: Inhibition of Escherichia coli thymidylate synthase by spectrophotometric analysis.
In another test the test system is Bacillus subtilis. Nature of the test: Antibacterial activity against Bacillus subtilis […] assessed as growth inhibition after 24 hrs by MTT assay. The test is classed as functional.
Another test has as its system Staphylococcus aureus. The experiment in a line: Antibacterial activity against Staphylococcus aureus ATCC 530 assessed as growth inhibition after 24 hrs by MTT assay. The test is classed as functional. Particulars: ATCC 530, 24 h. A general note: Tetrazolium dyes change colour on reduction, which living cells bring about.
For a further test, the system named is Escherichia coli. Nature of the test: Antibacterial activity against Escherichia coli ATCC 25922 assessed as growth inhibition after 24 hrs by MTT assay. The test is classed as functional. As to conditions: ATCC 25922, 24 h.
A further test concerns Pseudomonas aeruginosa. The experiment in a line: Antibacterial activity against Pseudomonas aeruginosa ATCC 27853 assessed as growth inhibition after 24 hrs by MTT assay. The test is classed as functional. Particulars: ATCC 27853, 24 h.

Values after ≈ are worked out from the molar mass of the structure shown.

Description for HepG2: Cytotoxicity against human HepG2 cells after 48 hrs by MTT assay
Description for MCF7: Cytotoxicity against human MCF7 cells after 48 hrs by MTT assay
Description for SGC-7901: Cytotoxicity against human SGC7901 cells after 48 hrs by MTT assay

By IC50 is commonly meant the midpoint of a concentration-inhibition curve. Read a high IC50 as lower potency. In the case of `COc1ccccc1-c1nnc(SCCn2c([N+](=O)[O-])cnc2C)o1`, the IC50 worked out at 10.8 µM in the test on MCF7, 30.5 µM with SGC-7901 and 10 µM with HepG2.

Regarding `Cc1ncc([N+](=O)[O-])n1CCSc1nnc(-c2cccnc2)o1`, the results for the half-inhibitory concentration (IC50) in the test on MCF7, in the test on SGC-7901 and in the test with HepG2 were 28.7 µM, 31.6 µM and 9.6 µM, respectively.

What is called MIC is the lowest concentration that inhibits growth of the organism. As for `Cc1ncc([N+](=O)[O-])n1CCSc1nnc(-c2cnccc2N)o1`, the concentration for half-maximal inhibition (IC50) in test [1] was determined as 1.8 µM; in the test on MCF7, 29.3 µM; with SGC-7901 it was 34.5 µM; in the test on HepG2, 8.4 µM. In addition, the minimum inhibitory concentration (MIC) amounted to 50 µg/mL (≈ 144 µM) with Bacillus subtilis, 25 µg/mL (≈ 72 µM) in the test on Staphylococcus aureus, 12.5 µg/mL (≈ 36 µM) in the test on Escherichia coli and 12.5 µg/mL (≈ 36 µM) in the test with Pseudomonas aeruginosa.

For the compound `Cc1ncc([N+](=O)[O-])n1CCSc1nnc(-c2cccs2)o1`, the figures for the half-maximal inhibitory concentration (IC50) in the test on MCF7, with SGC-7901 and in the test with HepG2 were 25.8 µM, 30.8 µM and 20.5 µM, respectively.

As for `Cc1ncc([N+](=O)[O-])n1CCSc1nnc(-c2ccnc(Cl)c2)o1`, the IC50 is 4.1 µM in test [1], 40.5 µM in the test on MCF7, 32.3 µM in the test with SGC-7901 and 11.6 µM in the test with HepG2.

In the case of `COc1ccc(-c2nnc(SCCn3c([N+](=O)[O-])cnc3C)o2)c(O)c1`, the results for the IC50 in the test on MCF7, in the test with SGC-7901 and with HepG2 were 21.8 µM, 11.7 µM and 11 µM, respectively.

As for `Nc1nc2[nH]cc(CCc3ccc(C(=O)N[C@@H](CCC(=O)O)C(=O)O)cc3)c2c(=O)[nH]1` [PEMETREXED], in test [1], the 50% inhibitory concentration (IC50) was found to be 76 µM. In other words, the double-digit micromolar range.

As for `Cc1ncc([N+](=O)[O-])n1CCSc1nnc(-c2ccncc2)o1`, the figures for the IC50 with MCF7, in the test with SGC-7901 and with HepG2 were 12.6 µM, 15.9 µM and 14.8 µM, respectively.

In the case of `Cc1ncc([N+](=O)[O-])n1CCSc1nnc(-c2ccnc(N)c2)o1`, the IC50 in test [1] worked out at 1.27 µM; in the test with MCF7, 20 µM; in the test with SGC-7901, 30 µM; in the test on HepG2, 0.9 µM. Also, the MIC is 50 µg/mL (≈ 144 µM) in the test with Bacillus subtilis, 25 µg/mL (≈ 72 µM) in the test on Staphylococcus aureus, 3.13 µg/mL (≈ 9.01 µM) in the test on Escherichia coli and 6.25 µg/mL (≈ 18 µM) with Pseudomonas aeruginosa.

Consider `Cc1ccc(-c2nnc(SCCn3c([N+](=O)[O-])cnc3C)o2)c(O)c1`, for which the IC50 with MCF7 amounted to 23.5 µM; with SGC-7901 it was 36.7 µM; with HepG2, 16.6 µM.

Turning to `Cc1ncc([N+](=O)[O-])n1CCSc1nnc(-c2ccccc2Cl)o1`, the figures for the concentration for half-maximal inhibition (IC50) with MCF7, in the test with SGC-7901 and with HepG2 were 22.5 µM, 32.6 µM and 15.6 µM, respectively.

On to `Cc1ncc([N+](=O)[O-])n1CCSc1nnc(-c2ccc(N)nc2)o1`, for which the half-inhibitory concentration (IC50) in the test on MCF7 stood at 26.8 µM; in the test on SGC-7901 it was 30.9 µM; in the test with HepG2, 9.4 µM.

`Cc1ncc([N+](=O)[O-])n1CCSc1nnc(-c2ccc(N)cc2)o1`: the concentration for half-maximal inhibition (IC50) worked out at 19.8 µM with MCF7, 31.7 µM with SGC-7901 and 6.7 µM in the test on HepG2.

On to `Cc1ccccc1-c1nnc(SCCn2c([N+](=O)[O-])cnc2C)o1`, for which the half-maximal inhibitory concentration (IC50) turned out to be 15.8 µM in the test on MCF7, 32.3 µM in the test with SGC-7901 and 5.1 µM in the test on HepG2.

Turning to `NC[C@H]1O[C@H](O[C@H]2[C@H](O)[C@@H](O[C@H]3O[C@H](CO)[C@@H](O)[C@H](N)[C@H]3O)[C@H](N)C[C@@H]2N)[C@H](O)[C@@H](O)[C@@H]1O` [KANAMYCIN], the MIC came to 1.56 µg/mL (≈ 3.22 µM) in the test on Bacillus subtilis, 1.56 µg/mL (≈ 3.22 µM) with Staphylococcus aureus, 3.13 µg/mL (≈ 6.46 µM) in the test on Escherichia coli and 3.13 µg/mL (≈ 6.46 µM) with Pseudomonas aeruginosa.

As for `Cc1ncc([N+](=O)[O-])n1CCSc1nnc(-c2cccc3ccccc23)o1`, the half-inhibitory concentration (IC50) was 30.1 µM in the test on MCF7, 8.8 µM with SGC-7901 and 10.6 µM in the test on HepG2.

Turning to `CCOc1ccc(-c2nnc(SCCn3c([N+](=O)[O-])cnc3C)o2)cc1`, the half-inhibitory concentration (IC50) in test [1] was 6.3 µM; with MCF7, 16.6 µM; with SGC-7901, 14.1 µM; in the test with HepG2, 1.9 µM.

With `Cc1cccc(-c2nnc(SCCn3c([N+](=O)[O-])cnc3C)o2)c1O`, the IC50 with MCF7 is 19.9 µM; in the test on SGC-7901, 35.9 µM; in the test on HepG2 it was 8.7 µM.

Take `Cc1ncc([N+](=O)[O-])n1CCSc1nnc(-c2ccccc2[N+](=O)[O-])o1`: the concentration for half-maximal inhibition (IC50) in test [1] turned out to be 0.47 µM; with MCF7 it was 18.3 µM; with SGC-7901, 30 µM; with HepG2, 0.7 µM. The MIC in the test on Bacillus subtilis worked out at 3.13 µg/mL (≈ 8.32 µM); in the test with Staphylococcus aureus, 1.56 µg/mL (≈ 4.15 µM); in the test with Escherichia coli it was 1.56 µg/mL (≈ 4.15 µM); with Pseudomonas aeruginosa it was 3.13 µg/mL (≈ 8.32 µM).

For `Cc1ncc([N+](=O)[O-])n1CCSc1nnc(-c2ccccc2O)o1`, the figures for the 50% inhibitory concentration (IC50) with MCF7, in the test with SGC-7901 and in the test on HepG2 were 28.3 µM, 30.5 µM and 19.6 µM, respectively.

As for `CCOc1ccccc1-c1nnc(SCCn2c([N+](=O)[O-])cnc2C)o1`, the IC50 in the test on MCF7 amounted to 25.9 µM; with SGC-7901 it was 30.3 µM; in the test with HepG2, 9.8 µM.

With `Cc1ncc([N+](=O)[O-])n1CCSc1nnc(-c2ccc(C(C)(C)C)cc2)o1`, the IC50 in test [1] was more than 10 µM; with MCF7, 22.1 µM; in the test with SGC-7901 it was 31.1 µM; in the test with HepG2, 4 µM.

As for `Cc1ncc([N+](=O)[O-])n1CCSc1nnc(-c2ccc(Cl)cc2)o1`, the IC50 came out at 18.7 µM in the test with MCF7, 31.9 µM in the test with SGC-7901 and 7.8 µM in the test on HepG2.

With `Cc1ncc([N+](=O)[O-])n1CCSc1nnc(-c2ccccc2F)o1`, the IC50 in the test on MCF7 was determined as 20.5 µM; in the test with SGC-7901 it was 33.7 µM; with HepG2, 3.7 µM.

On to `Cc1ncc([N+](=O)[O-])n1CCSc1nnc(-c2ccccc2N)o1`, for which the IC50 was determined as 20.1 µM in the test with MCF7, 35.1 µM in the test on SGC-7901 and 4.5 µM with HepG2.

On to `Cc1ncc([N+](=O)[O-])n1CCSc1nnc(-c2ccc3ccccc3c2)o1`, for which the half-maximal inhibitory concentration (IC50) in the test on MCF7 stood at 34.1 µM; in the test on SGC-7901, 30.7 µM; in the test with HepG2 it was 10.1 µM.

In the case of `Cc1ncc([N+](=O)[O-])n1CCSc1nnc(-c2ccc(N(C)C)cc2)o1`, the IC50 with MCF7 came out at 14.9 µM; in the test on SGC-7901, 32.8 µM; in the test with HepG2, 11.9 µM.

As for `O=c1[nH]cc(F)c(=O)[nH]1` [FLUOROURACIL], the IC50 in the test with MCF7 was 16.7 µM; in the test with SGC-7901 it was 28.9 µM; with HepG2, 22.8 µM.

`Cc1ccc(-c2nnc(SCCn3c([N+](=O)[O-])cnc3C)o2)cc1`: the IC50 in test [1] was more than 10 µM; with MCF7 it was 15.5 µM; with SGC-7901, 12.5 µM; in the test with HepG2, 2.2 µM.

For `Cc1ncc([N+](=O)[O-])n1CCSc1nnc(-c2ccc3c(c2)OCCO3)o1`, the concentration for half-maximal inhibition (IC50) in test [1] came to 2.4 µM; in the test on MCF7 it was 14.5 µM; in the test with SGC-7901 it was 9.2 µM; in the test with HepG2, 4.1 µM.

On to `Cc1ncc([N+](=O)[O-])n1CCSc1nnc(-c2ccc([N+](=O)[O-])cc2)o1`, for which the half-inhibitory concentration (IC50) in the test on MCF7 was 12.7 µM; with SGC-7901 it was 12.2 µM; in the test on HepG2 it was 4.1 µM.

Consider `COc1cc(-c2nnc(SCCn3c([N+](=O)[O-])cnc3C)o2)cc(OC)c1OC`, for which the IC50 is more than 10 µM in test [1], 30.6 µM in the test with MCF7, 34.8 µM with SGC-7901 and 14.9 µM in the test with HepG2.

As for `Cc1ncc([N+](=O)[O-])n1CCSc1nnc(-c2ccccn2)o1`, the IC50 in the test on MCF7 turned out to be 39.1 µM; in the test on SGC-7901, 30 µM; with HepG2 it was 20.2 µM.

Turning to `Cc1ncc([N+](=O)[O-])n1CCSc1nnc(-c2ccccc2)o1`, the IC50 in the test with MCF7 came out at 20.5 µM; in the test with SGC-7901 it was 30.1 µM; with HepG2, 17.5 µM.

For `Cc1ncc([N+](=O)[O-])n1CCSc1nnc(-c2ccco2)o1`, the IC50 is 29.5 µM with MCF7, 31.7 µM in the test with SGC-7901 and 22.6 µM with HepG2.

With `COc1cc(OC)cc(-c2nnc(SCCn3c([N+](=O)[O-])cnc3C)o2)c1`, the figures for the IC50 with MCF7, in the test on SGC-7901 and in the test with HepG2 were 12.8 µM, 9.6 µM and 10.5 µM, respectively.

Consider `Cc1ncc([N+](=O)[O-])n1CCSc1nnc(-c2ccc(C(C)C)cc2)o1`, for which the concentration for half-maximal inhibition (IC50) in test [1] was more than 10 µM; with MCF7 it was 20.7 µM; with SGC-7901, 13.8 µM; in the test on HepG2, 4.3 µM.

As for `COc1ccc(-c2nnc(SCCn3c([N+](=O)[O-])cnc3C)o2)cc1`, the IC50 in the test with MCF7 is 10.6 µM; with SGC-7901, 10.2 µM; in the test on HepG2 it was 5.8 µM.

In the case of `Cc1ncc([N+](=O)[O-])n1CCSc1nnc(-c2ccc(F)cc2)o1`, the IC50 in test [1] worked out at 3.9 µM; in the test on MCF7, 8.1 µM; with SGC-7901, 5.3 µM; in the test on HepG2, 0.6 µM.

On to `Cc1nc(=O)c2cc(CN(C)c3ccc(C(=O)N[C@@H](CCC(=O)O)C(=O)O)s3)ccc2[nH]1` [RALTITREXED], for which the concentration for half-maximal inhibition (IC50) stood at 12.6 µM in the test with MCF7, 8.7 µM in the test with SGC-7901 and 1.3 µM with HepG2. For the same compound, the MIC stood at 25 µg/mL (≈ 54.5 µM) in the test on Bacillus subtilis, 50 µg/mL (≈ 109 µM) in the test with Staphylococcus aureus, 25 µg/mL (≈ 54.5 µM) in the test on Escherichia coli and 50 µg/mL (≈ 109 µM) with Pseudomonas aeruginosa.

Source of the values: ChEMBL document CHEMBL2346585, “Novel 1,3,4-oxadiazole thioether derivatives targeting thymidylate synthase as dual anticancer/antimicrobial agents” (Bioorg Med Chem, 2013).
